Results as given in patent publication US8501911B2, “Methods of reducing inflammation and mucus hypersecretion” (Biomarck Pharmaceuticals, Ltd, priority 1999, dated 2013).
Like-named read-outs stand apart in the source and are kept apart here. Residues, ends and D or L forms follow the SMILES beside them. *: point of attachment. Myristoyl = CCCCCCCCCCCCCC(=O)*

Assays:
NHBE cells = assay: Cytotoxicity / metabolic activity of NHBE cells (LDH release, deoxyglucose uptake); type: cell-based, human; conditions: peptide 1-100 μM
Procedure: In Results-I-2B-1 and Results-I-2B-2, the MANS peptide blocked mucin hypersecretion induced by PMA+8-Br-cGMP or UTP in a concentration-dependent manner. NHBE cells were preincubated with the indicated peptide for 15 min and then exposed to PMA (100 nM)+8-Br-cGMP (1 μM) for 15 min or UTP (100 μM) for 2 h. Mucin secretion was measured by ELISA.
Cytotoxicity Assay—All reagents used in treating NHBE cells were examined for cytotoxicity by measuring the total release of lactate dehydrogenase from the cells. The assay was carried out using the Promega Cytotox 96 Kit according to the manufacturer's instructions. All experiments were performed with reagents at non-cytotoxic concentrations.

[1] = test system: LPS-induced lung inflammation; type: in vivo, mouse; conditions: for Hb / MPO / LDH / Total Protein: BAL fluid; for % Inhibition of MPO: mouse, in vivo; for % Inhibition of neutrophil migration: relative to PBS/LPS treatment
Procedure: Thus, six to seven week old CD1 female mice weighing 15-20 grams were obtained from Charles River laboratories and housed in groups of 5 mice per cage. The animals received standard rodent diet and filtered water ad libitum. The animals were housed under NIH prescribed guidelines at standard temperature (64° to 79° F.) and relative humidity of 30 to 70%.
Four treatment groups of mice, with 5 animals in each group, were treated either with PBS followed by PBS, with PBS followed by LPS, with (myristoylated) MANS peptide followed by LPS, or with peptide of SEQ ID NO: 15 (MA-GAQFSKTAAK) followed by LPS.
Intranasal peptide instillation pre-treatment: A peptide of the invention to be evaluated in vivo for its ability to inhibit or reduce LPS-induced lung inflammation was dissolved in PBS at a concentration of 1 mM. Animals, anesthetized with 0.8% isofluorane by inhalation, were pretreated with 2×10 μl intranasal bolus of the peptide solution into one nostril 30 minutes prior to subsequent instillation with LPS.
Intranasal LPS instillation: Lipopolysaccharide (LPS) Endotoxin (Escherichia coli Serotype 011:B4 derived endotoxin; Sigma, St Louis, Mo.; see Sigma product information sheet L4130 titled Lipopolysaccharides from Escherichia coli 011:B4) was dissolved into phosphate buffered saline (PBS) at 2,500 μg/mL. To expose animals to endotoxin, a 10 μL intranasal bolus of 2,500 μg/ml endotoxin solution was administered to animals which had been anesthetized with 0.8% isofluorane by inhalation. The 10 μL bolus was applied into one nostril. Animals were monitored for labored breathing, lethargy, and decreased water/food intake following the endotoxin instillations.
Bronchoalveolar Lavage (BAL): Six hours after the last instillation, the animals were anesthetized (90 mg/kg Nembutal) and sacrificed by exsanguination. The lung was serially lavaged 2 times with 1.0 mL aliquots of PBS. The collected BAL fluid was centrifuged to remove the cells for subsequent counting and differential analysis. Recovered lavage fluid was used for analysis of total protein, myeloperoxidase (MPO), LDH, and hemoglobin.
Analysis: Aliquots of the BAL fluid were used immediately to assay for the levels of LDH, total protein, or hemoglobin (Hb) using the COBAS Fara analyzer (COBAS FARA II automated analyzer; Roche Diagnostic Systems Inc., Montclair, N.J.). An aliquot of BAL fluid was frozen at −80° C. for subsequent quantitation of myeloperoxidase (MPO) with a mouse-specific ELISA assay (Cell Sciences, Inc., Canton, Mass.). BAL data were analyzed by standard techniques to examine differences between the control and treatment groups.

[2] = test system: human bronchial epithelial cells; assay: Basal (constitutive) mucin secretion by human bronchial epithelial cells; type: cell-based; conditions: peptide 100 μM, one hour incubation, no PMA or 8-Br-cGMP
Procedure: Mucus secreted from the airway epithelial cells in vitro after stimulation by activators was assessed using an ELISA (antibody capture method) (E. Harlow, D. Lane. “Antibodies: A Laboratory Manual.” New York: Cold Spring Harbor Laboratory Press, 1988), wherein the collected mucus is bound directly to the ELISA plate. Mucus was detected using an antibody raised against monkey airway mucus (Lin et al. Am J Respir Cell Mol Biol 1:41, 1989).
The MANS peptide (100 μM) was also found to decrease constitutive (basal) mucus secretion by one hour incubation. Cells were treated as described above except that no PMA or 8-Br-cGMP was used. […] Results, designated as Results-M-1B, are presented as follows and show the inhibition of basal mucin secretion by human bronchial epithelial cells exposed to the MANS peptide (SEQ ID NO: 1) or a negative control peptide consisting of the same amino acids as the MANS peptide, but in random order (RNS peptide; random N-terminal sequence (SEQ ID NO: 26):
The effect of MA-PSD peptide (1, 10 and 100 μM) on basal mucin secretion was also measured. Cells as described above were incubated for one hour with the MA-PSD peptide (no PMA or 8-Br-cGMP).

MARCKS mRNA = MARCKS mRNA level in NHBE cells (Northern hybridization); type: cell-based, human; conditions: TNF-α 10 ng/ml 4 h, then PMA 100 nM+8-Br-cGMP 1 μM 15 min
Procedure: NHBE cells were treated with the antisense or the control oligonucleotide for 3 days and then stimulated with PMA (100 nM)+8-Br-cGMP (1 μM) for 15 min. Mucin secretion was analyzed by ELISA. Total RNA and protein were isolated from treated cells. MARCKS mRNA was assessed by Northern hybridization, and protein was assessed by Western blot. […] In this regard, MARCKS mRNA as a percent of control is shown in the following results which are designated as Results-I-3A-2:
Antisense Oligonucleotides—MARCKS antisense oligonucleotide and its corresponding control oligonucleotide were synthesized at Biognostik GmbH (Gottingen, Germany). […] Cells were then incubated with secretagogues, and mucin secretion was measured by ELISA. […] MARCKS mRNA was assessed by Northern hybridization according to conventional procedures using human MARCKS cDNA as a probe. MARCKS protein level was determined by Western blot using purified anti-MARCKS IgG1 (clone 2F12) as the primary detection antibody.
NHBE cells were incubated with 10 ng/ml human recombinant TNF-α or medium alone for 4 hrs, then stimulated with PMA (100 nM)+8-Br-cGMP (1 μM) for 15 min, or UTP (0.1 mM) for 2 hrs. Secreted mucin was collected and measured by ELISA. […] MARCKS mRNA was assessed by Northern hybridization, and protein by the Western Blot technique. […]

Compound: CCCCCCCCCCCCCC(=O)NCC(=O)N[C@@H](C)C(=O)N[C@@H](CCC(N)=O)C(=O)N[C@@H](Cc1ccccc1)C(=O)N[C@@H](CO)C(=O)N[C@@H](CCCCN)C(=O)N[C@H](C(=O)N[C@@H](C)C(=O)N[C@@H](C)C(=O)N[C@@H](CCCCN)C(=O)NCC(=O)N[C@@H](CCC(=O)O)C(=O)N[C@@H](C)C(=O)N[C@@H](C)C(=O)N[C@@H](C)C(=O)N[C@@H](CCC(=O)O)C(=O)N[C@@H](CCCNC(=N)N)C(=O)N1CCC[C@H]1C(=O)NCC(=O)N[C@@H](CCC(=O)O)C(=O)N[C@@H](C)C(=O)N[C@@H](C)C(=O)N[C@H](C(=O)N[C@@H](C)C(=O)O)C(C)C)[C@@H](C)O [MANS peptide] (Myristoyl-GAQFSKTAAKGEAAAERPGEAAVA-OH; C-terminus assumed)
- Lactate dehydrogenase release (NHBE cells): neither the MANS nor the RNS peptide affected
- [3H]deoxyglucose uptake (NHBE cells): neither the MANS nor the RNS peptide affected
- Total cells counted ([1]; BAL 6 h after LPS, intranasal 2×10 μl of 1 mM peptide 30 min before LPS, Table 3 (PBS/LPS 264,200)): 208,457
- Hb ([1]; Table 3 (PBS/LPS 0.19)): 0.05 g/dL
- MPO ([1]; Table 3 (PBS/LPS 28.98)): 9.49 ng/mL
- LDH ([1]; Table 3 (PBS/LPS 60.40)): 68.57 units/L
- Total Protein ([1]; Table 3 (PBS/LPS 272.40)): 175.00 µg/mL
- % Neutrophils of total cells ([1]; Table 3 (PBS/LPS 41.7)): 30.9%
- Total neutrophils counted ([1]; Table 3 (PBS/LPS 110,061)): 64,481
- % Inhibition of MPO [1]: 67.2%
- % Inhibition of neutrophil migration [1]: 41.4%
- Basal mucin secretion level relative to control [2]: 28%

Compound: CCCCCCCCCCCCCC(=O)NCC(=O)N[C@H](C(=O)N[C@@H](C)C(=O)N1CCC[C@H]1C(=O)N[C@@H](C)C(=O)N[C@@H](C)C(=O)N[C@@H](CCC(=O)O)C(=O)NCC(=O)N[C@@H](C)C(=O)NCC(=O)N[C@@H](C)C(=O)N[C@@H](CCC(=O)O)C(=O)N[C@H](C(=O)N[C@@H](CCCCN)C(=O)N[C@@H](CCCNC(=N)N)C(=O)N[C@@H](C)C(=O)N[C@@H](CO)C(=O)N[C@@H](C)C(=O)N[C@@H](CCC(=O)O)C(=O)N[C@@H](C)C(=O)N[C@@H](CCCCN)C(=O)N[C@@H](CCC(N)=O)C(=O)N[C@@H](C)C(=O)N[C@@H](Cc1ccccc1)C(=O)O)C(C)C)[C@@H](C)O [RNS peptide, reference compound] (Myristoyl-GTAPAAEGAGAEVKRASAEAKQAF-OH; C-terminus assumed)
- Lactate dehydrogenase release (NHBE cells): neither the MANS nor the RNS peptide affected
- [3H]deoxyglucose uptake (NHBE cells): neither the MANS nor the RNS peptide affected
- Basal mucin secretion level relative to control [2]: 90%

Compound: CCCCCCCCCCCCCC(=O)NCC(=O)N[C@@H](C)C(=O)N[C@@H](CCC(N)=O)C(=O)N[C@@H](Cc1ccccc1)C(=O)N[C@@H](CO)C(=O)N[C@@H](CCCCN)C(=O)N[C@H](C(=O)N[C@@H](C)C(=O)N[C@@H](C)C(=O)N[C@@H](CCCCN)C(=O)O)[C@@H](C)O [SEQ ID NO: 15, N-myristoyl-GAQFSKTAAK] (Myristoyl-GAQFSKTAAK-OH; C-terminus assumed)
- Total Cell Counts ([1]; BAL 6 h after LPS, intranasal peptide 30 min before LPS, Table 4 (PBS/LPS 422,300)): 628,075
- Hb ([1]; Table 4 (PBS/LPS 0.01)): 0.01 g/dL
- MPO ([1]; Table 4 (PBS/LPS 17.33)): 0.79 ng/mL
- LDH ([1]; Table 4 (PBS/LPS 107.80)): 110.75 units/L
- Total Protein ([1]; Table 4 (PBS/LPS 157.40)): 120.25 µg/mL
- % Neutrophils of total counts ([1]; Table 4 (PBS/LPS 28.2)): 6.1%
- Total Neutrophil counts ([1]; Table 4 (PBS/LPS 119,114)): 38,548
- % Inhibition of MPO [1]: 95.4%
- % Inhibition of neutrophil migration [1]: 67.6%

Compound: TNF-α
- MARCKS mRNA level relative to control (MARCKS mRNA): 115%
